Patent publication US20120252853A1, “Positive allosteric modulators of nicotinic acetylcholine receptor” (H. Lundbeck A/S, priority 2011, published 2012)

Molecular target: human α7 receptor (Homo sapiens, UniProt P36544)
Assay: α7 NNR flux assay (FDSS Ca assay)
Type: cell-based
Conditions: positive allosteric modulation; rat GH4C1 cell line stably expressing human α7; acetylcholine 20 μM; % modulation relative to PNU-120596 set to 100%
Method: In this version of the assay, the human α7 receptor is stably expressed in the rat GH4C1 cell line. The assay was used to identify positive allosteric modulators (PAMs) of the α7 receptor. Activation of the channel was measured by loading cells with the calcium-sensitive fluorescent dye Calcium-4 (Assay kit from Molecular Devices), and then measuring real-time changes in fluorescence upon treatment with test compounds.
The cell line ChanClone GH4C1-nAChRalpha7 from Genionics was seeded from frozen stock in 384-well plates in culture media 2-3 days before experiment to form an approximately 80% confluent layer on the day of experiment.
The cell culture were split into “22.5 cm×22.5 cm”-plates with approximately 100×10^3 cells/cm^2. After four days incubation in a humidified incubator at 37° C. and 5% CO2, it had grown to an 80-90% confluent layer, and the cells were harvested.
Two or three days before the experiment the cells were seeded in 384 well plates from Greiner bio-one (781946, CELLCOAT, Poly-D-Lysine, black, μClear).
The cells were seeded in 384 well plates with 30 μL/well (30000 cells/well) while stirring the cell suspension or otherwise preventing the cells from precipitating. The plates were incubated at room temperature for 30-45 minutes. The plates were placed in incubator for two days (37° C. and 5% CO2).
The loading buffer was 5% v/v Calcium-4 Kit and 2.5 mM Probenecid in assay buffer.
Culture media were removed from the cell plates and 20 μL loading buffer was added in each well. The cell plates were placed in trays and incubated 90 minutes in the incubator (37° C.). Thereafter the plates were incubated 30 minutes at room temperature, still protected from light. Now the cell plates were ready to run in the Functional Drug Screening System (FDSS) The assay buffer was HBSS with 20 mM HEPES, pH 7.4 and 3 mM CaCl2.
200 nL 10 mM compound solution in DMSO was diluted in 50 μL assay buffer. The final test concentrations in the cell plates were 20-10-5-2.5-1.25-0.625-0.312-0.156-0.078-0.039 μM. Assay buffer and 3 μM PNU-120596 were used for control:
The agonist acetylcholine was added to a final concentration of 20 μM (˜EC100). In the FDSS7000 the Ex480-Em540 was measured with 1 second intervals. The baseline was made of 5 frames before addition of test compounds, and 95 frames more were made before addition of acetylcholine. The measurement stopped 30 frames after the 2nd addition. Raw data for each well were collected as “the maximum fluorescence count” in the interval 100-131 seconds and as “the average fluorescence count” in the interval 96-100 seconds. The positive allosteric modulation in the 2nd addition was the enhancement of agonist response with test compound compared to agonist alone.
Results were calculated as % modulation of test compound compared to the reference PNU-120596 set to 100%.

human α7 receptor, sequence (P36544 23-502): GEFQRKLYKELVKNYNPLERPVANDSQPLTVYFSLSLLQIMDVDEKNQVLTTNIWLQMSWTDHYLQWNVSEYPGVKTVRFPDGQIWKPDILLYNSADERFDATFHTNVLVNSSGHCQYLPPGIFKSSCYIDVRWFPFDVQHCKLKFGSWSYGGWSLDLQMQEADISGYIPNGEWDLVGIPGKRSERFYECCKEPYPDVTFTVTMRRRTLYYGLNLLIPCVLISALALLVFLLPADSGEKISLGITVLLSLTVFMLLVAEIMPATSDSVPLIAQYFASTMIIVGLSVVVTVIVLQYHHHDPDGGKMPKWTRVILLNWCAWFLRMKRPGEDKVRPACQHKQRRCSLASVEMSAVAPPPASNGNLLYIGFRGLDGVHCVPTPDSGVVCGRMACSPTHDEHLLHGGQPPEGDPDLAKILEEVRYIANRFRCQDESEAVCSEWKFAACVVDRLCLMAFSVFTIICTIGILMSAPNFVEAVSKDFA

| Compound | EC50 [µM] |
| --- | --- |
| Cc1cc2cc(C(C)NC(=O)c3oncc3C)ccc2[nH]1 (racemic) [Compound 16, 4-methyl-N-[1-(2-methyl-1H-indol-5-yl)ethyl]isoxazole-5-carboxamide] | 11 |
| COc1cc(C(=O)NC(C)c2ccc3[nH]c(C)cc3c2)on1 (racemic) [Compound 18, 3-methoxy-N-[1-(2-methyl-1H-indol-5-yl)ethyl]isoxazole-5-carboxamide] | 6.7 |
| Cc1cc(C(=O)NC(C)c2ccc3[nH]c(C)cc3c2)on1 (racemic) [Compound 33, 3-methyl-N-[1-(2-methyl-1H-indol-5-yl)ethyl]isoxazole-5-carboxamide] | 2.63 |
| Cc1cc(C(=O)NC(C)c2ccc3[nH]c(C(F)(F)F)cc3c2)on1 (single isomer, unassigned) [Compound 97, 3-methyl-N-[1-[2-(trifluoromethyl)-1H-indol-5-yl]ethyl]isoxazole-5-carboxamide] | 5.2 |
| Cc1cc2cc(CNC(=O)c3sc(C)nc3C)ccc2[nH]1 [Compound 2, 2,4-dimethyl-N-[(2-methyl-1H-indol-5-311)methyl]thiazole-5-carboxamide] | 9.8 |
| Cc1cc2cc(CNC(=O)c3ccc(Cl)s3)ccc2[nH]1 [Compound 3, 5-Chloro-thiophene-2-carboxylic acid (2-methyl-1H-indol-5-ylmethyl)-amide] | 0.13 |
| Cc1cc2cc(CNC(=O)c3sccc3Cl)ccc2[nH]1 [Compound 4, 3-chloro-N-[(2-methyl-1H-indol-5-yl)methyl]thiophene-2-carboxamide] | 2.9 |
| Cc1cc2cc(CNC(=O)c3cscn3)ccc2[nH]1 [Compound 5, N-[(2-methyl-1H-indol-5-yl)methyl]thiazole-4-carboxamide] | 4.4 |
| Cc1cc2cc(CNC(=O)c3ccsc3)ccc2[nH]1 [Compound 6, N-[(2-methyl-1H-indol-5-yl)methyl]thiophene-3-carboxamide] | 0.52 |
| Cc1cc2cc(CNC(=O)c3cc(C)oc3C)ccc2[nH]1 [Compound 7, 2,5-dimethyl-N-[(2-methyl-1H-indol-5-yl)methy]furan-3-carboxamide] | 1.4 |
| Cc1cc2cc(CNC(=O)c3cc(C)on3)ccc2[nH]1 [Compound 8, 5-methyl-N-[(2-methyl-1H-indol-5-yl)methyl]isoxazole-3-carboxamide] | 3.2 |
| Cc1cc2cc(CNC(=O)c3sccc3C)ccc2[nH]1 [Compound 9, 3-methyl-N-[(2-methyl-1H-indol-5-yl)methyl]thiophene-2-carboxamide] | 1.8 |
| Cc1cc2cc(CNC(=O)c3ccco3)ccc2[nH]1 [Compound 10, N-[(2-methyl-1H-indol-5-yl)methyl]furan-2-carboxamide] | 4 |
| Cc1cc2cc(CNC(=O)c3ccoc3)ccc2[nH]1 [Compound 11, N-[(2-methyl-1H-indol-5-yl)methyl]furan-3-carboxamide] | 2.4 |
| Cc1cc2cc(CNC(=O)c3cc(C)n(C)n3)ccc2[nH]1 [Compound 12, 1,5-dimethyl-N-[(2-methyl-1H-indol-5-yl)methyl]pyrazole-3-carboxamide] | 9.1 |
| Cc1cc2cc(CNC(=O)c3cccs3)ccc2[nH]1 [Compound 13, N-[(2-methyl-1H-indol-5-yl)methyl]thiophene-2-carboxamide] | 0.53 |
| Cc1cc2cc(CNC(=O)c3ccc[nH]3)ccc2[nH]1 [Compound 14, N-[(2-methyl-1H-indol-5-yl)methyl]-1H-pyrrole-2-carboxamide] | 7.4 |
| Cc1cc2cc(CNC(=O)c3oncc3C)ccc2[nH]1 [Compound 15, 4-methyl-N-[(2-methyl-1H-indol-5-yl)methyl]isoxazole-5-carboxamide] | 9.6 |

| Compound | EC50 [µM] |
| --- | --- |
| Cc1cc(C(=O)NCc2ccc3[nH]cc(C)c3c2)on1 [Compound 17, 3-methyl-N-[(3-methyl-1H-indol-5-34)methyl]isoxazole-5-carboxamide] | 11 |
| COc1cc(C(=O)NCc2ccc3[nH]c(C)cc3c2)on1 [Compound 19, 3-methoxy-N-[(2-methyl-1H-indol-5-yl)methyl]isoxazole-5-carboxamide] | 4.6 |
| Cc1cc2cc(CNC(=O)c3nccs3)ccc2[nH]1 [Compound 20, N-[(2-methyl-1H-indol-5-yl)methyl]thiazole-2-carboxamide] | 3.3 |
| Cc1cc2cc(CNC(=O)c3ocnc3C)ccc2[nH]1 [Compound 22, 4-methyl-N-[(2-methyl-1H-indol-5-yl)methyl]oxazole-5-carboxamide] | 7.2 |
| Cc1cc(C(=O)NCc2cc(C)c3[nH]ccc3c2)on1 [Compound 23, 3-methyl-N-[(7-methyl-1H-indol-5-yl)methyl]isoxazole-5-carboxamide] | 7.1 |
| Cc1cc2cc(CNC(=O)c3csc(C)n3)ccc2[nH]1 [Compound 25, 2-methyl-N-[(2-methyl-1H-indol-5-yl)methyl]thiazole-4-carboxamide] | 4.7 |
| Cc1cc2cc(CNC(=O)c3ccno3)ccc2[nH]1 [Compound 26, N-[(2-methyl-1H-indol-5-yl)methyl]isoxazole-5-carboxamide] | 7.37 |
| Cc1cc2cc(CNC(=O)c3c(C)noc3C)ccc2[nH]1 [Compound 27, 3,5-dimethyl-N-[(2-methyl-1H-indol-5-yl)methyl]isoxazole-4-carboxamide] | 0.44 |
| Cc1cc2cc(CNC(=O)c3cc(=O)n(C)[nH]3)ccc2[nH]1 [Compound 32, 2-methyl-N-[(2-methyl-1H-indol-5-yl)methyl]-3-oxo-1H-pyrazole-5-carboxamide] | 11 |
| Cc1cc2cc(CNC(=O)c3ccn(C)c3)ccc2[nH]1 [Compound 37, 1-methyl-N-[(2-methyl-1H-indol-5-yl)methyl]pyrrole-3-carboxamide] | 9.8 |
| Cc1cc(C(=O)NC(C)c2ccc3[nH]ccc3c2)on1 (centres unmarked) [Compound 38, N-[1-(1H-indol-5-yl)ethyl]-3-methyl-isoxazole-5-carboxamide] | 5.9 |
| Cc1cc(C(=O)NCc2cc3cc[nH]c3cc2C)on1 [Compound 39, 3-methyl-N-[(6-methyl-1H-indol-5-yl)methyl]isoxazole-5-carboxamide] | 9.1 |
| Cc1cc(C(=O)NCc2ccc3[nH]c(C)c(C)c3c2)on1 [Compound 41, N-[(2,3-dimethyl-1H-indol-5-yl)methyl]-3-methyl-isoxazole-5-carboxamide] | 7.7 |
| Cc1cc2cc([C@@H](C)NC(=O)c3cnc(C)s3)ccc2[nH]1 [Compound 42, 2-methyl-N-[(1R)-1-(2-methyl-1H-indol-5-yl)ethyl]thiazole-5-carboxamide] | 5.6 |
| CCn1cc(C(=O)N[C@H](C)c2ccc3[nH]c(C)cc3c2)cn1 [Compound 43, 1-ethyl-N-[(1R)-1-(2-methyl-1H-indol-5-yl)ethyl]pyrazole-4-carboxamide] | 2.2 |
| Cc1cc2cc([C@@H](C)NC(=O)c3cnn(C)c3)ccc2[nH]1 [Compound 44, 1-methyl-N-[(1R)-1-(2-methyl-1H-indol-5-yl)ethyl]pyrazole-4-carboxamide] | 6.1 |
| Cc1cc(C(=O)N[C@@H](c2ccc3[nH]c(C)cc3c2)C(F)(F)F)on1 [Compound 45, 3-methyl-N-[(1S)-2,2,2-trifluoro-1-(2-methyl-1H-indol-5-yl)ethyl]isoxazole-5-carboxamide] | 1.5 |
